Experimental data: patent US20250002475A1 (EPICS THERAPEUTICS, priority 2023, published 2025)

target: T1, recombinant METTL3/METTL14 complex (Homo sapiens, UniProt Q86U44); test: METTL3/14 Scintillation Proximity Assay (SPA), RNA methyltransferase activity; assay type: biochemical; conditions: 5.31 nM METTL3/14 complex, 250 nM RNA substrate, 1 μM 3H-SAM, 90 min; for compounds marked * best of the two separated forms
T1 construct: purchased Active Motif 311970; host or cells: Sf9 cells
T1 sequence (Q86U44 whole entry): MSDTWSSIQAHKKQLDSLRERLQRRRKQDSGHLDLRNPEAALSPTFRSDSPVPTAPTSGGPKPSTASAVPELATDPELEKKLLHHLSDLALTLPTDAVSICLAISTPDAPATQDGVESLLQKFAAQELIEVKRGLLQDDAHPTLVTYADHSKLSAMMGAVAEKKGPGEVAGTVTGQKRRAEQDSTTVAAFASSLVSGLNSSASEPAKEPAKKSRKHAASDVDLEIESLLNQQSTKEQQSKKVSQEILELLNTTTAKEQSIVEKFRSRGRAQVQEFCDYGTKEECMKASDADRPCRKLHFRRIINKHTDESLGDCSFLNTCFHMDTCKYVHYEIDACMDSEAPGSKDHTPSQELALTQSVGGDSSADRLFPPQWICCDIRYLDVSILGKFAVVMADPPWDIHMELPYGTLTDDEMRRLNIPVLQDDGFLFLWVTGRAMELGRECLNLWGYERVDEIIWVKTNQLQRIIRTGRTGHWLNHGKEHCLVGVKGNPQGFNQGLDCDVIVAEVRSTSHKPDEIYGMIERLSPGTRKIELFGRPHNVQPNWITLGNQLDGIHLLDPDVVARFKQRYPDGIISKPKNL
T1 sequence (Q9HCE5 whole entry partner): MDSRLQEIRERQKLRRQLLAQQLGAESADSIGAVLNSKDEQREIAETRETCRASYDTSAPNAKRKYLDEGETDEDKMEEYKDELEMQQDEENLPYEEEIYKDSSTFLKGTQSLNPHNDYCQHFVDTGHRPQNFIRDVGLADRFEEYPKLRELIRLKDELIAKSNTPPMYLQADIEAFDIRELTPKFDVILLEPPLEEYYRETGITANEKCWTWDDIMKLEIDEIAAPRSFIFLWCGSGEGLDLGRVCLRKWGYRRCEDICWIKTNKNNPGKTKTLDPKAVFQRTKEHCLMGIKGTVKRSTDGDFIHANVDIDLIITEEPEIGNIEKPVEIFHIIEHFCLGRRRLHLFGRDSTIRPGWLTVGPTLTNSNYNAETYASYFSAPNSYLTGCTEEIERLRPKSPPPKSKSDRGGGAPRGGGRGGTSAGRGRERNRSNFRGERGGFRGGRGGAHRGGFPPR

Row | Compound | IC50 [nM]
1 | CC(C(=O)Nc1cncc(N2CCCC2)c1)c1ccc(N2CCC[C@@H](NCC3CCC3)C2)cn1 (single isomer, unassigned) [Compound 264] | ≤ 50
2 | CC(n1cnc(-c2cncc(N(C)C)c2)c1)n1ccc(N2CCC[C@@H](NCC3CC3)C2)cc1=O (single isomer, unassigned) [Compound 266] | ≤ 50
3 | CC(C(=O)Nc1cncc(N2CCCC2)n1)c1ccc(N2CCC[C@@H](NCC3CCC3)C2)cc1 (single isomer, unassigned) [Compound 294] | ≤ 50
4 | Cc1cc(N2CCC[C@@H](NCC3CC3)C2)cnc1C(C)n1cc(-c2cncc(C3CC3)c2)nn1 (single isomer, unassigned) [Compound 318] | ≤ 50
5 | COc1cncc(C(=O)NCc2ccc(N3CCC[C@@H](NCC4CCC4)C3)nn2)c1 [Compound 004, (R)-N-((6-(3-((cyclobutylmethyl)amino)piperidin-1-yl)pyridazin-3-yl)methyl)-5-methoxynicotinamide] | 500 to 3500
6 | COc1cc(C(=O)NCc2ccc(N3CCC[C@@H](NCC4CCC4)C3)nn2)c2cn[nH]c2c1 [Compound 005, (R)-N-((6-(3-((cyclobutylmethyl)amino)piperidin-1-yl)pyridazin-3-yl)methyl)-6-methoxy-1H-indazole-4-carboxamide] | 50 to 500
7 | O=C(NCc1ccc(N2CCCC(N3CCC4(CC3)CC4)C2)nn1)c1cc(=O)n2ccccc2n1 (stereo not drawn) [Compound 014, N-((6-(3-(6-azaspiro[2.5]octan-6-yl)piperidin-1-yl)pyridazin-3-yl)methyl)-4-oxo-4H-pyrido[1,2-a]pyrimidine-2-carboxamide] | 50 to 500
8 | O=C(NCc1ccc(N2CCC[C@@H](NCC3CC3)C2)nn1)c1cc(=O)n2ccccc2n1 [Compound 016, (R)-N-((6-(3-((cyclopropylmethyl)amino)piperidin-1-yl)pyridazin-3-yl)methyl)-4-oxo-4H-pyrido[1,2-a]pyrimidine-2-carboxamide] | 50 to 500
9 | N#Cc1cncc(-c2cn(Cc3ccc(N4CCC[C@@H](NCC5CCC5)C4)nn3)nn2)c1 [Compound 021, (R)-5-(1-((6-(3-((cyclobutylmethyl)amino)piperidin-1-yl)pyridazin-3-yl)methyl)-1H-1,2,3-triazol-4-yl)nicotinonitrile] | 50 to 500
10 | O=c1[nH]c(-c2cn(Cc3ccc(N4CCC[C@@H](NCC5CCC5)C4)nn3)nn2)nc2ccccc12 [Compound 029, (R)-2-(1-((6-(3-((cyclobutylmethyl)amino)piperidin-1-yl)pyridazin-3-yl)methyl)-1H-1,2,3-triazol-4-yl)quinazolin-4(3H)-one] | 50 to 500
11 | c1cc(N2CCC[C@@H](NCC3CCC3)C2)nnc1Cn1cc(-c2csc3cncn23)nn1 [Compound 034, (R)-N-(cyclobutylmethyl)-1-(6-((4-(imidazo[5,1-b]thiazol-3-yl)-1H-1,2,3-triazol-1-yl)methyl)pyridazin-3-yl)piperidin-3-amine] | ≤ 50
12 | COc1cc(-c2cn(Cc3ccc(N4CCCC(N5CC6(CCC6)C5)C4)nn3)nn2)c2cn[nH]c2c1 (stereo not drawn) [Compound 035, 4-(1-((6-(3-(2-azaspiro[3.3]heptan-2-yl)piperidin-1-yl)pyridazin-3-yl)methyl)-1H-1,2,3-triazol-4-yl)-6-methoxy-1H-indazole] | ≤ 50
13 | COc1cncc(-c2cn(Cc3ccc(N4C[C@H](NCC5CCC5)CC[C@@H]4C)nn3)nn2)c1 [Compound 038, (3R,6S)-N-(cyclobutylmethyl)-1-(6-((4-(5-methoxypyridin-3-yl)-1H-1,2,3-triazol-1-yl)methyl)pyridazin-3-yl)-6-methylpiperidin-3-amine] | 50 to 500
14 | O=c1[nH]c(-c2cn(Cc3ccc(N4CCC[C@@H](NCC5CCC5)C4)nn3)nn2)cc2ccccc12 [Compound 048, (R)-3-(1-((6-(3-((cyclobutylmethyl)amino)piperidin-1-yl)pyridazin-3-yl)methyl)-1H-1,2,3-triazol-4-yl)isoquinolin-1(2H)-one] | ≤ 50
15 | COc1cc(-c2cn(Cc3ncc(N4CCCC(NCC5CCC5)C4)s3)nn2)c2cn[nH]c2c1 (stereo not drawn) [Compound 049, N-(cyclobutylmethyl)-1-(2-((4-(6-methoxy-1H-indazol-4-yl)-1H-1,2,3-triazol-1-yl)methyl)thiazol-5-yl)piperidin-3-amine] | ≤ 50
16 | COc1cncc(-c2cn(Cc3ccc(N4CCCC(C)(NCC5CCC5)C4)nn3)nn2)c1 (stereo not drawn) [Compound 053, N-(cyclobutylmethyl)-1-(6-((4-(5-methoxypyridin-3-yl)-1H-1,2,3-triazol-1-yl)methyl)pyridazin-3-yl)-3-methylpiperidin-3-amine] | 50 to 500
17 | COc1cc(-c2cn(Cn3cc(F)c(N4CCCC(NCC5CCC5)C4)cc3=O)nn2)c2cn[nH]c2c1 (stereo not drawn) [Compound 054, 4-(3-((cyclobutylmethyl)amino)piperidin-1-yl)-5-fluoro-1-((4-(6-methoxy-1H-indazol-4-yl)-1H-1,2,3-triazol-1-yl)methyl)pyridin-2(1H)-one] | 500 to 3500

Row | Compound | IC50 [nM]
18 | COc1cncc(-c2cn(Cc3ccc(N4CCC(F)(F)C(NCC5CCC5)C4)nn3)nn2)c1 (stereo not drawn) [Compound 059, N-(cyclobutylmethyl)-4,4-difluoro-1-(6-((4-(5-methoxypyridin-3-yl)-1H-1,2,3-triazol-1-yl)methyl)pyridazin-3-yl)piperidin-3-amine] | 50 to 500
19 | O=C(NCc1ccc(N2CCC[C@@H](NCC3CCC3)C2)nc1)c1cc(=O)n2ccccc2n1 [Compound 061, (R)-N-((6-(3-((cyclobutylmethyl)amino)piperidin-1-yl)pyridin-3-yl)methyl)-4-oxo-4H-pyrido[1,2-a]pyrimidine-2-carboxamide] | ≤ 50
20 | COc1cncc(-c2cn(Cn3ncc(N4CCC[C@@H](NCC5CCC5)C4)cc3=O)nn2)c1 [Compound 062, (R)-5-(3-((cyclobutylmethyl)amino)piperidin-1-yl)-2-((4-(5-methoxypyridin-3-yl)-1H-1,2,3-triazol-1-yl)methyl)pyridazin-3(2H)-one] | ≤ 50
21 | COc1cncc(-c2nnc(Cc3ccc(N4CCC[C@@H](NCC5CCC5)C4)nn3)[nH]2)c1 [Compound 069, (R)-N-(cyclobutylmethyl)-1-(6-((5-(5-methoxypyridin-3-yl)-4H-1,2,4-triazol-3-yl)methyl)pyridazin-3-yl)piperidin-3-amine] | ≤ 50
22 | O=C(NCc1ccc(N2CCC[C@@H](NCC3CCC3)C2)cc1)c1cc(=O)n2ccccc2n1 [Compound 070, (R)-N-(4-(3-((cyclobutylmethyl)amino)piperidin-1-yl)benzyl)-4-oxo-4H-pyrido[1,2-a]pyrimidine-2-carboxamide] | ≤ 50
23 | CC(NC(=O)c1cc(=O)n2ccccc2n1)c1ccc(N2CCC[C@@H](NCC3CCC3)C2)nc1 (stereo partly drawn) [Compound 072, N-(1-(6-((R)-3-((cyclobutylmethyl)amino)piperidin-1-yl)pyridin-3-yl)ethyl)-4-oxo-4H-pyrido[1,2-a]pyrimidine-2-carboxamide] | 50 to 500
24 | C[C@H](NC(=O)c1cc(=O)n2ccccc2n1)c1ccc(N2CCC[C@@H](NCC3CCC3)C2)cc1 [Compound 074, N-((S)-1-(4-((R)-3-((cyclobutylmethyl)amino)piperidin-1-yl)phenyl)ethyl)-4-oxo-4H-pyrido[1,2-a]pyrimidine-2-carboxamide] | ≤ 50
25 | CC(n1cc(-c2cccnc2)nn1)n1ccc(N2CCC[C@@H](NCC3CCC3)C2)cc1=O (stereo partly drawn) [Compound 079, 4-((R)-3-((cyclobutylmethyl)amino)piperidin-1-yl)-1-(1-(4-(pyridin-3-yl)-1H-1,2,3-triazol-1-yl)ethyl)pyridin-2(1H)-one] | ≤ 50
26 | CC(c1ccc(N2CCC[C@@H](NCC3CCC3)C2)nn1)n1cc(-c2cc(=O)n3ccccc3n2)nn1 (stereo partly drawn) [Compound 089, 2-(1-(1-(6-((R)-3-((cyclobutylmethyl)amino)piperidin-1-yl)pyridazin-3-yl)ethyl)-1H-1,2,3-triazol-4-yl)-4H-pyrido[1,2-a]pyrimidin-4-one] | ≤ 50
27 | CC(c1ccc(N2CCC[C@@H](NCC3CCC3)C2)nn1)n1cc(-c2cc(=O)n3cc(Cl)ccc3n2)nn1 (stereo partly drawn) [Compound 090, 7-chloro-2-(1-(1-(6-((R)-3-((cyclobutylmethyl)amino)piperidin-1-yl)pyridazin-3-yl)ethyl)-1H-1,2,3-triazol-4-yl)-4H-pyrido[1,2-a]pyrimidin-4-one] | ≤ 50
28 | CC(n1cc(-c2cncc(F)c2)nn1)n1ccc(N2CCC[C@@H](NCC3CCC3)C2)cc1=O (stereo partly drawn) [Compound 094, 4-((R)-3-((cyclobutylmethyl)amino)piperidin-1-yl)-1-(1-(4-(5-fluoropyridin-3-yl)-1H-1,2,3-triazol-1-yl)ethyl)pyridin-2(1H)-one] | ≤ 50
29 | CC(NC(=O)c1cc(=O)n2ccccc2n1)c1ccc(N2CCC[C@@H](NCC3CCC3)C2)cc1 (stereo partly drawn) [Compound 100, N-(1-(4-((R)-3-((cyclobutylmethyl)amino)piperidin-1-yl)phenyl)ethyl)-4-oxo-4H-pyrido[1,2-a]pyrimidine-2-carboxamide] | 50 to 500
30 | COc1cncc(-c2cn(Cc3ccc(N4CCCCC(NCC5CCC5)C4)nn3)nn2)c1 (stereo not drawn) [Compound 101, N-(cyclobutylmethyl)-1-(6-((4-(5-methoxypyridin-3-yl)-1H-1,2,3-triazol-1-yl)methyl)pyridazin-3-yl)azepan-3-amine] | 50 to 500
31 | CC(c1ccc(N2CCC[C@@H](NCC3CCC3)C2)cc1)n1cc(-c2cc(=O)n3ccccc3n2)nn1 (stereo partly drawn) [Compound 102] | ≤ 50
32 | COc1cc(-c2cn(C(C)n3ccc(N4CCC[C@@H](NCC5CCC5)C4)cc3=O)nn2)cnc1C (stereo partly drawn) [Compound 104, 4-((R)-3-((cyclobutylmethyl)amino)piperidin-1-yl)-1-(1-(4-(5-methoxy-6-methylpyridin-3-yl)-1H-1,2,3-triazol-1-yl)ethyl)pyridin-2(1H)-one] | 50 to 500
33 | COc1cncc(-c2cn(C(C)n3ccc(N4CCC[C@@H](NCC5CCC5)C4)cc3=O)nn2)c1C (stereo partly drawn) [Compound 108, 4-((R)-3-((cyclobutylmethyl)amino)piperidin-1-yl)-1-(1-(4-(5-methoxy-4-methylpyridin-3-yl)-1H-1,2,3-triazol-1-yl)ethyl)pyridin-2(1H)-one] | ≤ 50
